# In publication PMC2714806 (2009):
# “And” between values parts separate entries of the source, which are not always exact repeats. Equal entries are not always repeated. “Also recorded” adds a separate entry of the source. Ends that are not written are not given here.
# Assays:
# NMDA receptor = conditions: cited from earlier work
# [1] = tested on: NR1a/NR2A-, NR1a/NR2B-, NR1b/NR2A-, and NR1b/NR2B-containing receptors; conditions: cited from earlier work
# [2] = format: physicochemical; conditions: pH 6.5
# NR1b/2A NMDA receptor = format: cell-based; conditions: pH 7.35
# [3] = format: binding; conditions: pH 6.5
# [4] = format: binding; conditions: pH 6.5; remark: listed apart in the source
# [5] = tested on: NR1b/2A and NR1b/2B NMDA receptors; format: cell-based; conditions: 40 µM
# NR1b/2B NMDA receptor = format: cell-based; conditions: pH 7.35
# [6] = format: physicochemical; conditions: pH 6.5; remark: listed apart in the source
substance,measurement,setting,value
GEγγYQγMLγNLRγAEVKKNA-NH2 [con-T[K7γ]],inhibition of ion flow through NMDA receptor complexes,NMDA receptor,potent and specific inhibitors
"con-T[M8N]: Met8-substituted con-T peptide (GEEEYQKNLENLREAEVKKNA; ends and bridges not checked; UniProt P17684 1-21, looked up, variant M8N)",NR2A-/NR2B-selectivity,[1],non-selective
"con-T: naturally-occurring conantokin derived from Conus tulipa (GEEEYQKMLENLREAEVKKNA; ends and bridges not checked; UniProt P17684 1-21, looked up)",inhibition of current flow through the NMDA receptor,NMDA receptor,potent and selective inhibitor of current flow through the NMDA receptor
same,antagonism of NMDA receptor activity,[1]; 40 µM,completely antagonizes NMDA receptor activity at all subunit combinations
"con-T[γ4E,K7γ,V17γ] [con-T-tri]",MWapp (apparent molecular weight),[2],3320 ± 300 and 6490 ± 450 and 3460 ± 190
same,self-association,[2],did not result in marked self-association
same,effect on NMDA-evoked current,NR1b/2A NMDA receptor,current potentiation; also recorded: Potentiation of currents
same,n (stoichiometry of metal ion binding),[3],1.0
same,Kd,[4],26 µM
same,NR2A-/NR2B-selectivity,[5],NR2B selective
same,effect on NMDA-evoked current,NR1b/2B NMDA receptor,modest inhibitory activity
same,helicity (in words),[6],marginal helicity; also recorded: high percentage of helix content; also recorded: negligible helicity; also recorded: highly helical character
